Laboratory results from patent EP4678638A1, “NEW E3 UBIQUITIN LIGASE LIGAND, PROTEIN DEGRADATION AGENT AND USE THEREOF” (priority 2023, dated 2024).
Where two headings read alike, the source gives them in different places.

Legend:
[1] = test system: MCF7; experiment: CCK-8 proliferation, MCF7 (MCF-7); format: cell-based; conditions: Homo sapiens, MCF7, CCK-8
Outline: (§1)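 CCK-8 viability readout; IC50 from growth-inhibition curve fitting. Cells plated, dosed 24h later with a 10-point series, top 10µM, 5-fold steps. Culture at 37°C, 5% CO2.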

[2] = test system: MDA-MB-231; experiment: CCK-8 proliferation, MDA-MB-231; format: cell-based; conditions: Homo sapiens, MDA-MB-231; CCK-8; 96 hours; read-out: Inhibitory activity (IC50) on tumor cell proliferation, MDA-MB-231
Outline: as §1

[3] = target: T1, WEE1 (Homo sapiens, UniProt P30291+Q96SW2); experiment: Western blot degradation of WEE1 (hPBMC); format: cell-based; conditions: Table D16
T1 construct: evaluate the effects of the compounds of the present disclosure on the expression of target proteins in cells; endogenous in cells; host or cells: hPBMC
T1 sequence (P30291 whole entry): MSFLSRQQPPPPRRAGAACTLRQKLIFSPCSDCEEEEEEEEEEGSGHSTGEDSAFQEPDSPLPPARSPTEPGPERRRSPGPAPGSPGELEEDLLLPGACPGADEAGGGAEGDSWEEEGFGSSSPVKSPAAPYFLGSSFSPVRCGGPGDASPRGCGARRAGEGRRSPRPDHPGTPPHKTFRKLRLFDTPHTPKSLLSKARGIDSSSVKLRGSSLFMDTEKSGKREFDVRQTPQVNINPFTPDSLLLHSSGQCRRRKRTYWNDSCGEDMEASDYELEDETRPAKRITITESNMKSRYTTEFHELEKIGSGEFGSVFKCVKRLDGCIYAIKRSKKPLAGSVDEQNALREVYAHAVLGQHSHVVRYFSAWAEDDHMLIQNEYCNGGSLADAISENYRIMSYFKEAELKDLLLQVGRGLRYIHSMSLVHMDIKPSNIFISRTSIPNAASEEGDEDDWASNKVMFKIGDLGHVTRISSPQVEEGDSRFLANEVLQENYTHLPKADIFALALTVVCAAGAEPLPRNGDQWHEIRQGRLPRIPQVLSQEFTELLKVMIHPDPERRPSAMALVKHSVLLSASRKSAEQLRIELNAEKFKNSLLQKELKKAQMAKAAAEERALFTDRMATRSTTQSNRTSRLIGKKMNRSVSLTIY
T1 sequence (Q96SW2 whole entry): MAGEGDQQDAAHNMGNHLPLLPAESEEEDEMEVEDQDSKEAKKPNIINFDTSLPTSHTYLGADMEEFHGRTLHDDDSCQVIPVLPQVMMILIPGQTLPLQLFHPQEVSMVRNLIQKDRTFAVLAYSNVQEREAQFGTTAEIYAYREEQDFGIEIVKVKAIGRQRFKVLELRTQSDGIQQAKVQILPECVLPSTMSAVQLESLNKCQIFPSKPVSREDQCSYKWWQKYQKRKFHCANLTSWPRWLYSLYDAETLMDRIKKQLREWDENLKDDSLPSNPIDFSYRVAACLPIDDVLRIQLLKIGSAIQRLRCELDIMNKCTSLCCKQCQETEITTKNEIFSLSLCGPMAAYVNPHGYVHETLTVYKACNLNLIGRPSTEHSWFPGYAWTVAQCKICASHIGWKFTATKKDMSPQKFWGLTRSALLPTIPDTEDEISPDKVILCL
T1 sequence (Q16531 whole entry partner): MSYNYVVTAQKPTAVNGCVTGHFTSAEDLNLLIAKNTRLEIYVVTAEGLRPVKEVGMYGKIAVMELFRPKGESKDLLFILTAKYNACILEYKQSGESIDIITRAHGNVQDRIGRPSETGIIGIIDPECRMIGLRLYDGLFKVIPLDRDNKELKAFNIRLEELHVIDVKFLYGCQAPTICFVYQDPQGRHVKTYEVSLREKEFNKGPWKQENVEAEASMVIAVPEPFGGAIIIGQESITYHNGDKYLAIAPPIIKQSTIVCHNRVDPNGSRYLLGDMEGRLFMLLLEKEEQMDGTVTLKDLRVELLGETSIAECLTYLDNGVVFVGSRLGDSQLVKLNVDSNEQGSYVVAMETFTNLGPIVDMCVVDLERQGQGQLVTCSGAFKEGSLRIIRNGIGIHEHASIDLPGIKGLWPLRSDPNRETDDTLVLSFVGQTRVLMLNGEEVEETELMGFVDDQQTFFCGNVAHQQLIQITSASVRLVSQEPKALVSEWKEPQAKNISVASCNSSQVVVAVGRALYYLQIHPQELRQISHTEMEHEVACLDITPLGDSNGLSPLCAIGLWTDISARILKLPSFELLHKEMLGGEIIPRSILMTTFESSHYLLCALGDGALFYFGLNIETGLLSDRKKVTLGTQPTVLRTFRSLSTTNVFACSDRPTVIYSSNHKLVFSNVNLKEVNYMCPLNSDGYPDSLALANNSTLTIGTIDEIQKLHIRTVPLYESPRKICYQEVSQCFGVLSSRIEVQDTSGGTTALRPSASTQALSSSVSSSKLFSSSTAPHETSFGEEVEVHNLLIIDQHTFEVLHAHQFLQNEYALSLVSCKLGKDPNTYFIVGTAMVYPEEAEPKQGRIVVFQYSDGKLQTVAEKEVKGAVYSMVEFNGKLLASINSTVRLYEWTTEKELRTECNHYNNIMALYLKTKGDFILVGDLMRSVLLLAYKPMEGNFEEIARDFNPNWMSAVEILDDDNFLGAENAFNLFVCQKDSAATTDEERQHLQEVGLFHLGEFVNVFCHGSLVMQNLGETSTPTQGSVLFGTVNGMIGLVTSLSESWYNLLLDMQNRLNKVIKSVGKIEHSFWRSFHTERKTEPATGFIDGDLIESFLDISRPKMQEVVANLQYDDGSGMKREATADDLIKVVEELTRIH
Outline: (§2)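 Degradation is assessed by immunoblotting lysates of treated cells. Target bands are quantified by grayscale and normalised to an internal control, so degradation rate equals 100% minus % remaining.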

[4] = target: T2, IKZF1 (Homo sapiens, UniProt Q13422+Q96SW2); experiment: Western blot degradation of IKZF1 (hPBMC); format: cell-based; conditions: Table D16
T2 construct: evaluate the effects of the compounds of the present disclosure on the expression of target proteins in cells; endogenous in cells; host or cells: hPBMC
T2 sequence (Q13422 whole entry): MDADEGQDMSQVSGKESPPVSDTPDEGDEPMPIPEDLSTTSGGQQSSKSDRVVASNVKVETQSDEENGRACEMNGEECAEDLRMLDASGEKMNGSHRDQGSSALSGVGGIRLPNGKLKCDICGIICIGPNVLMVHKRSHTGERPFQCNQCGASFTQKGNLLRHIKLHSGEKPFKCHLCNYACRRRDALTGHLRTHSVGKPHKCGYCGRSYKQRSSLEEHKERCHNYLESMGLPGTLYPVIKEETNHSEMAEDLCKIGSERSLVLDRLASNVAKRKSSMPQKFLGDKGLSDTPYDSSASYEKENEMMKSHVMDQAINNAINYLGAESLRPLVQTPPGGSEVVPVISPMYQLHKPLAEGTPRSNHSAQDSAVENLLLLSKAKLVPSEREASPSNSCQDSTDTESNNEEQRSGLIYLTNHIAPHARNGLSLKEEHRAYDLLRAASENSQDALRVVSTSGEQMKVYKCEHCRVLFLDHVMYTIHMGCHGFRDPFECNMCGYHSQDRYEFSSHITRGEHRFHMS
T2 sequence (Q96SW2 whole entry): as the sequence (Q96SW2 whole entry) above
T2 sequence (Q16531 whole entry partner): as the sequence (Q16531 whole entry partner) above
Outline: as §2

[5] = target: T3, IKZF2 (Homo sapiens, UniProt Q96SW2+Q9UKS7); experiment: Western blot degradation of IKZF2 (hPBMC); format: cell-based; conditions: Table D16
T3 construct: evaluate the effects of the compounds of the present disclosure on the expression of target proteins in cells; endogenous in cells; host or cells: hPBMC
T3 sequence (Q9UKS7 whole entry): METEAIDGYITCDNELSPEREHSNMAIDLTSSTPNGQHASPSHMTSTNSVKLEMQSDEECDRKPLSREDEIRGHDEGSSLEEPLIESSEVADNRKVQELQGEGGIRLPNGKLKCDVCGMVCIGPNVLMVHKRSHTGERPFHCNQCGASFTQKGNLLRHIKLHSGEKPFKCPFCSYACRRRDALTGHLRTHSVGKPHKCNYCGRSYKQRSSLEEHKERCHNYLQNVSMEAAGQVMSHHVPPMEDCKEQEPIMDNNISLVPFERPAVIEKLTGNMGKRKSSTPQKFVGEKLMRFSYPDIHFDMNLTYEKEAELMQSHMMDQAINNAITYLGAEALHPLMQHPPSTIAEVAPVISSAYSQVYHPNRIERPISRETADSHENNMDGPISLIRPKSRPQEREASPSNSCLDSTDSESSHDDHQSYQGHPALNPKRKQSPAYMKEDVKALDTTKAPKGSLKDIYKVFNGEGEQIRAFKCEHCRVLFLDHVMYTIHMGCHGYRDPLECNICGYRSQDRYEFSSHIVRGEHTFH
T3 sequence (Q96SW2 whole entry): as the sequence (Q96SW2 whole entry) above
T3 sequence (Q16531 whole entry partner): as the sequence (Q16531 whole entry partner) above
Outline: as §2

[6] = target: T4, IKZF3 (Homo sapiens, UniProt Q96SW2+Q9UKT9); experiment: Western blot degradation of IKZF3 (hPBMC); format: cell-based; conditions: Table D16
T4 construct: evaluate the effects of the compounds of the present disclosure on the expression of target proteins in cells; endogenous in cells; host or cells: hPBMC
Outline: as §2

[7] = target: T5, CK1a (Homo sapiens, UniProt P48729+Q96SW2); experiment: Western blot degradation of CK1a (hPBMC); format: cell-based; conditions: Table D16
T5 construct: evaluate the effects of the compounds of the present disclosure on the expression of target proteins in cells; endogenous in cells; host or cells: hPBMC
T5 sequence (P48729 whole entry): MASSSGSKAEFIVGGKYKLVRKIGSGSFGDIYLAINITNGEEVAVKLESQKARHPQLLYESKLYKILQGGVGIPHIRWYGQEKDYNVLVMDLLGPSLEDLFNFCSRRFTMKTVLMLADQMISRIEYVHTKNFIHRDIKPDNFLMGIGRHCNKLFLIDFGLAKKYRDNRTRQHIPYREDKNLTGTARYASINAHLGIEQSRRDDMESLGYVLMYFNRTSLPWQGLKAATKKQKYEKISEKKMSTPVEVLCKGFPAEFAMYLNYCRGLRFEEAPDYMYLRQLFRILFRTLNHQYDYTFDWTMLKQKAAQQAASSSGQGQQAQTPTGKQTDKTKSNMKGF
T5 sequence (Q96SW2 whole entry): as the sequence (Q96SW2 whole entry) above
T5 sequence (Q16531 whole entry partner): as the sequence (Q16531 whole entry partner) above
Outline: as §2

[8] = target: T6, GSPT1 (Homo sapiens, UniProt P15170+Q96SW2); experiment: Western blot degradation of GSPT1 (hPBMC); format: cell-based; conditions: Table D16
T6 construct: evaluate the effects of the compounds of the present disclosure on the expression of target proteins in cells; endogenous in cells; host or cells: hPBMC
T6 sequence (P15170 whole entry): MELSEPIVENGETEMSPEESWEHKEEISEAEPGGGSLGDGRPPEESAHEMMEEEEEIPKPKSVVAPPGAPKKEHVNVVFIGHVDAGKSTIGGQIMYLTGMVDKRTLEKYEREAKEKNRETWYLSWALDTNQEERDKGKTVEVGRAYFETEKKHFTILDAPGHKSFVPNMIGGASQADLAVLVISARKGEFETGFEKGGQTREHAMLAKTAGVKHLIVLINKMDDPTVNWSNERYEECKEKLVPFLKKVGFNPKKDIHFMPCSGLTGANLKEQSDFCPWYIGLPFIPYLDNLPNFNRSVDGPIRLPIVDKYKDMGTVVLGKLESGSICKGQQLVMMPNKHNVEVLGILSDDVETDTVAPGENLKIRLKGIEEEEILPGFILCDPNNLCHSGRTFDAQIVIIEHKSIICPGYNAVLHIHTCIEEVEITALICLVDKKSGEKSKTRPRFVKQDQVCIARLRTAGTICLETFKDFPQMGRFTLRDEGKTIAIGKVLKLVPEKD
T6 sequence (Q96SW2 whole entry): as the sequence (Q96SW2 whole entry) above
T6 sequence (Q16531 whole entry partner): as the sequence (Q16531 whole entry partner) above
Outline: as §2

[9] = test system: MV-4-11; experiment: CCK-8 proliferation, MV-4-11; format: cell-based, Human; conditions: CCK-8, 72 or 96 hours, read-out: Inhibitory activity (IC50) on tumor cell proliferation, MV-4-11
Outline: as §1

[10] = test system: Kasumi-1; experiment: CCK-8 proliferation, Kasumi-1; format: cell-based, Human; conditions: read-out: Inhibitory activity (IC50) on tumor cell proliferation, Kasumi-1
Method: The tumor cells used herein were cultured in a cell culture medium listed in table A1 at 37°C in an incubator with 5% CO2. Prior to experimentation, all cell lines used were correctly identified by STR profiling, and tested negative for mycoplasma contamination using a mycoplasma detection kit through routine screenings. Table A1. Tumor cells and cell culture medium used in the present disclosure
IC50 values of the compounds of the present disclosure (including the compounds in Table 1, and compounds of examples) were measured using the Meilun Cell Counting Kit-8 kit from Dalian Meilun Biotech Co., Ltd. Assay details are as follows: tumor cells were seeded in a 96-well plate at a density listed in Table A2. After 24h, 100 µL of the inoculated cells were treated with 0.5µL of the compounds of the present disclosure (including the compounds in Tables 1 and 2, and compounds of examples) at 10 different successively decreasing concentrations (starting at the highest concentration of 10µM; 5-fold serial dilutions). After the cells were treated with the compounds of the present disclosure for a period of time, the cell viability detection reagent was added to the culture medium for cell viability assessment according to the instructions provided with the CCK-8 kit. […] The growth inhibition of the compounds of the present disclosure on cells was plotted by Prism Graphpad software, and the IC50 values of the compounds of the present disclosure were calculated therefrom. […] Seeding protocol and treatment time for tumor cells

[11] = target: T7, CDK4 (Homo sapiens, UniProt P11802); experiment: Western blot degradation of CDK4 (MDA-MB-231 Cell); format: cell-based; conditions: Table D3
T7 construct: evaluate the effects of the compounds of the present disclosure on the expression of target proteins in cells; endogenous in cells; host or cells: MDA-MB-231
T7 sequence (P11802 whole entry): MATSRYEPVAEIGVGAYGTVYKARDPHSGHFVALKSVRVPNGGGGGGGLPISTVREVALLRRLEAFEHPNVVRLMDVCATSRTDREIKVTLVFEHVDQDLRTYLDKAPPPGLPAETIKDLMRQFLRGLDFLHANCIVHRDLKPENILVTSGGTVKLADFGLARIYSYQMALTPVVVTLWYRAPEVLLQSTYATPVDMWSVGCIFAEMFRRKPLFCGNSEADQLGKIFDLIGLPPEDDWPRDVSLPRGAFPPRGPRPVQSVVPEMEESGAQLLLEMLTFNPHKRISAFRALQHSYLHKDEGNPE
Outline: as §2

[12] = target: T8, CDK6 (Homo sapiens, UniProt Q00534); experiment: Western blot degradation of CDK6 (MDA-MB-231 Cell); format: cell-based; conditions: Table D3
T8 construct: evaluate the effects of the compounds of the present disclosure on the expression of target proteins in cells; endogenous in cells; host or cells: MDA-MB-231
Outline: as §2

[13] = test system: CCRF-CEM; experiment: CCK-8 proliferation, CCRF-CEM; format: cell-based, Human; conditions: CCK-8, 96 hours, read-out: Inhibitory activity (IC50) on tumor cell proliferation, CCRF-CEM
Outline: as §1

[14] = read-out: Inhibitory activity (IC50) on tumor cell proliferation, MCF-7
[15] = Homo sapiens, Kasumi 1, 72 hours

IC50 [2] [µM]	IC50 ([9]; Homo sapiens, MV4-11) [µM]	SMILES	Degradation of substrate protein WEE1 (substrate protein remaining %) [3]	Degradation of substrate protein IKZF1 (substrate protein remaining %) [4]	Degradation of substrate protein IKZF2 (substrate protein remaining %) [5]	Degradation of substrate protein IKZF3 (substrate protein remaining %) [6]	Degradation of substrate protein CKla (substrate protein remaining %) [7]	Degradation of substrate protein GSPT1 (substrate protein remaining %) [8]	IC50 [10, 15] [µM]	further results
1 to 5		O=C1CCN(c2cc(CCl)c(F)cn2)C(=O)N1 [GT-07199, 1-(4-(Chloromethyl)-5-fluoropyridin-2-yl)dihydropyrimidine-2,4(1H,3H)-dione]	B (B is defined as substrate protein remaining % > 80%)	B (B is defined as substrate protein remaining % > 80%)	A (A is defined as 0% ≤ substrate protein remaining % ≤ 80%)	A (A is defined as 0% ≤ substrate protein remaining % ≤ 80%)	A (A is defined as 0% ≤ substrate protein remaining % ≤ 80%)	A (A is defined as 0% ≤ substrate protein remaining % ≤ 80%)		IC50 [1, 14]: 1 to 5 µM
1 to 5		O=C1CCN(c2cnc(F)c(CCl)c2)C(=O)N1 [GT-07633, 1-(5-(Chloromethyl)-6-fluoropyridin-3-yl)dihydropyrimidine-2,4(1H,3H)-dione]	A (A is defined as 0% ≤ substrate protein remaining % ≤ 80%)	B (B is defined as substrate protein remaining % > 80%)	A (A is defined as 0% ≤ substrate protein remaining % ≤ 80%)	B (B is defined as substrate protein remaining % > 80%)	A (A is defined as 0% ≤ substrate protein remaining % ≤ 80%)	B (B is defined as substrate protein remaining % > 80%)		IC50 [1, 14]: 1 to 5 µM
1 to 5		O=C1CCN(c2cc(CCl)ccn2)C(=O)N1 [GT-07078, 1-(4-(Chloromethyl)pyridin-2-yl)dihydropyrimidine-2,4(1H,3H)-dione]	B (B is defined as substrate protein remaining % > 80%)	B (B is defined as substrate protein remaining % > 80%)	B (B is defined as substrate protein remaining % > 80%)	B (B is defined as substrate protein remaining % > 80%)	B (B is defined as substrate protein remaining % > 80%)	A (A is defined as 0% ≤ substrate protein remaining % ≤ 80%)		IC50 [1, 14]: 1 to 5 µM
	0.05 to 0.1	Cc1nc2c(F)cc(-c3nc(Nc4ccc(CN5CCN(Cc6ccc(N7CCC(=O)NC7=O)nc6)CC5)cn4)ncc3F)cc2n1C(C)C [GT-06668, 1-(5-((4-((6-((5-fluoro-4-(4-fluoro-1-isopropyl-2-methyl-1H-benzo[d]imidazol-6-yl)pyrimidin-2-yl)amino)pyridin-3-yl)methyl)piperazin-1-yl)methyl)pyridin-2-yl)dihydropyrimidine-2,4(1H,3H)-dione]							0.1 to 0.5	IC50 ([1]; read-out: Inhibitory activity (IC50) on tumor cell proliferation, MCF7): 0.05 to 0.1 µM; Degradation of substrate protein CDK4 (substrate protein remaining %) [11]: A (A is defined as 0% ≤ substrate protein remaining % ≤ 80%); Degradation of substrate protein CDK6 (substrate protein remaining %) [12]: A (A is defined as 0% ≤ substrate protein remaining % ≤ 80%)
	0.1 to 0.5	Cc1cc(S(=O)(=O)N2CCN(Cc3cccc(N4CCC(=O)NC4=O)c3)CC2)ccc1Nc1ncc(Br)c(Nc2cccc(F)c2C(N)=O)n1 [GT-06832, 2-((5-bromo-2-((4-((4-(3-(2,4-dioxotetrahydropyrimidin-1(2H)-yl)benzyl)piperazin-1-yl)sulfonyl)-2-methylphenyl)amino)pyrimidin-4-yl)amino)-6-fluorobenzamide]							0.5 to 1	
	0.1 to 0.5	Cc1ccsc1C(=O)n1nc(Nc2ccc(S(=O)(=O)N3CCN(Cc4ccc(N5CCC(=O)NC5=O)nc4)CC3)cc2)nc1N [GT-06861, 1-(5-((4-((4-((5-amino-1-(3-methylthiophene-2-carbonyl)-1H-1,2,4-triazol-3-yl)amino)phenyl)sulfonyl)piperazin-1-yl)methyl)pyridin-2-yl)dihydropyrimidine-2,4(1H,3H)-dione]							0.5 to 1	IC50 ([13]; Homo sapiens, CCRF-CEM): 0.5 to 1 µM
		CN1CCN(Cc2ccc(NC(=O)c3[nH]ncc3Nc3ncnc4[nH]ccc34)cc2)CC1 [FN-1501, reference compound]								IC50 [9]: 0.001 to 0.01 µM; IC50 [13]: 0.1 to 0.5 µM; IC50 ([10]; 72 hours): 0.1 to 0.5 µM
1 to 5		O=C1CCN(c2cnc(CCl)cn2)C(=O)N1 [GT-07635, 1-(5-(Chloromethyl)pyrazin-2-yl)dihydropyrimidine-2,4(1H,3H)-dione]	A (A is defined as 0% ≤ substrate protein remaining % ≤ 80%)	A (A is defined as 0% ≤ substrate protein remaining % ≤ 80%)	A (A is defined as 0% ≤ substrate protein remaining % ≤ 80%)	A (A is defined as 0% ≤ substrate protein remaining % ≤ 80%)	A (A is defined as 0% ≤ substrate protein remaining % ≤ 80%)	B (B is defined as substrate protein remaining % > 80%)		
	0.1 to 0.5	Cc1ccsc1C(=O)n1nc(Nc2ccc(S(=O)(=O)N3CCN(Cc4cccc(NC5CCC(=O)NC5=O)c4)CC3)cc2)nc1N (stereo not drawn) [GT-06862, 3-((3-((4-((4-((5-amino-1-(3-methylthiophene-2-carbonyl)-1H-1,2,4-triazol-3-yl)amino)phenyl)sulfonyl)piperazin-1-yl)methyl)phenyl)amino)piperidine-2,6-dione]							0.1 to 0.5	
	0.1 to 0.5	Cc1cc(S(=O)(=O)N2CCN(Cc3ccc(N4CCC(=O)NC4=O)cc3)CC2)ccc1Nc1ncc(Br)c(Nc2cccc(F)c2C(N)=O)n1 [GT-06831, 2-((5-bromo-2-((4-((4-(4-(2,4-dioxotetrahydropyrimidin-1(2H)-yl)benzyl)piperazin-1-yl)sulfonyl)-2-methylphenyl)amino)pyrimidin-4-yl)amino)-6-fluorobenzamide]							0.5 to 1	
	0.1 to 0.5	Cc1cc(S(=O)(=O)N2CCN(Cc3ccc(N4CCC(=O)NC4=O)nc3)CC2)ccc1Nc1ncc(Br)c(Nc2cccc(F)c2C(N)=O)n1 [GT-06834, 2-((5-bromo-2-((4-((4-((6-(2,4-dioxotetrahydropyrimidin-1(2H)-yl)pyridin-3-yl)methyl)piperazin-1-yl)sulfonyl)-2-methylphenyl)amino)pyrimidin-4-yl)amino)-6-fluorobenzamide]							0.5 to 1	IC50 ([13]; Homo sapiens, CCRF-CEM): 0.5 to 1 µM
	0.1 to 0.5	Cc1ccsc1C(=O)n1nc(Nc2ccc(S(=O)(=O)N3CCN(Cc4ccc(N5CCC(=O)NC5=O)cc4)CC3)cc2)nc1N [GT-06856, 1-(4-((4-((4-((5-amino-1-(3-methylthiophene-2-carbonyl)-1H-1,2,4-triazol-3-yl)amino)phenyl)sulfonyl)piperazin-1-yl)methyl)phenyl)dihydropyrimidine-2,4(1H,3H)-dione]							0.5 to 1	IC50 ([13]; Homo sapiens, CCRF-CEM): 0.5 to 1 µM
